Experimental findings from patent publication US20260176320A1, “MODULATORS OF G-PROTEIN COUPLED RECEPTORS” (priority 2018, published 2026) are described below.

Holding throughout (format): cell-based
One assay addresses T1, GIP-R (Homo sapiens, UniProt P48546).
T1 sequence (P48546 22-466): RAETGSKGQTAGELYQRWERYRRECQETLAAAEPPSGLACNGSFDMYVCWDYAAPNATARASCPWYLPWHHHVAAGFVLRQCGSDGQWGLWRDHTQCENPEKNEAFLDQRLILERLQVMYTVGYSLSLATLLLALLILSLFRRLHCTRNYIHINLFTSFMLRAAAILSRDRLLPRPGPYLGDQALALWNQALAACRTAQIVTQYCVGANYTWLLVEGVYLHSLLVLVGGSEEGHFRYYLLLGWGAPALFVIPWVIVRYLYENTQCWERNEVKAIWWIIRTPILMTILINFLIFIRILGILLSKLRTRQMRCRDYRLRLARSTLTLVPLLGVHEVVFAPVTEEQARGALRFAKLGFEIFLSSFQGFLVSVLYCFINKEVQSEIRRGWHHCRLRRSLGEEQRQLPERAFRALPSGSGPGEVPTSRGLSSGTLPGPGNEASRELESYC
The assay can be described thus: HitHunter cAMP assay (GIP-R). The following applies: cAMP; for Emax: read-out: (Emax) GIP-R. Put shortly: (§1)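 Suspension cells expressing each receptor (10,000 per well) in HBSS with 10 mM HEPES, 625 μM IBMX and 0.2% BSA were treated with a 22-point 2-fold agonist series in duplicate for 30 minutes at room temperature. cAMP was detected by antibody immunocompetition with luminescence read after overnight incubation.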

For assay [1], the target named is T2, GLP-1R (Homo sapiens, UniProt P43220). Briefly: PathHunter β-arrestin assay. In short, it runs like this:
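Cells seeded overnight, then medium replaced with medium containing 0.2% BSA; agonists added as 22-point 2-fold DMSO dilution series in duplicate and incubated 90 min at 37 °C, 5% CO2. After addition of detection solution, plates sat 3 h at room temperature in the dark; luminescence read.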

In assay [2] the target is T2, GLP-1R. Briefly: HitHunter cAMP assay (GLP-1R). To be noted: cAMP; for Emax: read-out: (Emax) GLP-1R. Put shortly: as §1
For orientation: Cyclic AMP is a second messenger, typically raised through Gs and lowered through Gi signalling.

[3] abbreviates: Table 3, read-out: EC50 GIP-R/nM.
[4] abbreviates: Table 3A, read-out: EC50 GIP-R/nM.
The mark [5] stands for this setting: PathHunter β-arrestin assay, read-out: β-arrestin activity EC50.
[6] abbreviates: Table 3, read-out: EC50 GLP-1R/nM.
Setting [7] is: Table 3A, read-out: EC50 GLP-1R/nM.

Read-outs that look alike come from different tables or passages of the source.

T2 sequence (P43220 24-463): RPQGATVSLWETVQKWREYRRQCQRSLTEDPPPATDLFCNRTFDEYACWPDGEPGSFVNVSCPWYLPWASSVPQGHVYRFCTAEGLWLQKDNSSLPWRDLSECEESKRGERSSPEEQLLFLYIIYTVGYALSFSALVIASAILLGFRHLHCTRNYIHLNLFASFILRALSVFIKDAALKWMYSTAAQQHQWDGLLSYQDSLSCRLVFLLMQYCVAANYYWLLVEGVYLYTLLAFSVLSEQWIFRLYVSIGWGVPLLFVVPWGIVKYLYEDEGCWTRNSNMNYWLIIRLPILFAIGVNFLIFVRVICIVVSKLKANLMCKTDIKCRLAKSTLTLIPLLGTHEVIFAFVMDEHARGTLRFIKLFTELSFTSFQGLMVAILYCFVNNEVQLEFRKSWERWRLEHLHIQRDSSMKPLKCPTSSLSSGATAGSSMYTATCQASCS

Usually Emax stands for the maximal effect, on the per cent scale that the assay sets. For the compound `CC[C@H](C)[C@H](NC(=O)[C@H](CO)NC(=O)[C@H](Cc1ccc(O)cc1)NC(=O)[C@H](CC(=O)O)NC(=O)[C@H](CO)NC(=O)[C@@H](NC(=O)[C@H](Cc1ccccc1)NC(=O)[C@@H](NC(=O)CNC(=O)[C@H](CCC(=O)O)NC(=O)C(C)(C)C(=O)NCCCN1C(=O)c2ccccc2C1=O)[C@@H](C)O)[C@@H](C)O)C(=O)N[C@@H](Cc1ccc(O)cc1)C(=O)N[C@@H](CC(C)C)C(=O)N[C@@H](CC(=O)O)C(=O)N[C@@H](CCCCN)C(=O)N[C@@H](CCC(N)=O)C(=O)N[C@@H](C)C(=O)N[C@@H](C)C(=O)NC(C)(C)C(=O)N[C@@H](CCC(=O)O)C(=O)N[C@@H](Cc1ccccc1)C(=O)N[C@H](C(=O)N[C@@H](CC(N)=O)C(=O)N[C@@H](Cc1c[nH]c2ccccc12)C(=O)N[C@@H](CC(C)C)C(=O)N[C@@H](CC(C)C)C(=O)N[C@@H](C)C(=O)NCC(=O)NCC(=O)N1CCC[C@H]1C(=O)N[C@@H](CO)C(=O)N[C@@H](CO)C(=O)NCC(=O)N[C@@H](C)C(=O)N1CCC[C@H]1C(=O)N1CCC[C@H]1C(=O)N1CCC[C@H]1C(=O)N[C@@H](CO)C(=O)N[C@@H](CCCCN)C(N)=O)C(C)C` [Compound 143], the Emax on GIP-R (Table 3) was 99 to 107%; at GIP-R (Table 3A) it was 99 to 107%; on GLP-1R [2] (Table 3) it was 99 to 108%; at GLP-1R [2] (Table 3A), 99 to 108%. The EC50 is 1 to 10 nM at GIP-R (setting [3]); 1 to 10 nM at GIP-R (setting [4]); above 1000 nM at GLP-1R [1] (setting [5]); 0.1 to 1 nM on GLP-1R [2] (setting [6]); 0.1 to 1 nM at GLP-1R [2] (setting [7]).
In the case of `CCCCCCCCCCCCCCCC(=O)N[C@@H](CCC(=O)NCCCC[C@H](NC(=O)[C@H](CO)NC(=O)[C@@H]1CCCN1C(=O)[C@@H]1CCCN1C(=O)[C@@H]1CCCN1C(=O)[C@H](C)NC(=O)CNC(=O)[C@H](CO)NC(=O)[C@H](CO)NC(=O)[C@@H]1CCCN1C(=O)CNC(=O)CNC(=O)[C@H](C)NC(=O)[C@H](CC(C)C)NC(=O)[C@H](CC(C)C)NC(=O)[C@H](Cc1c[nH]c2ccccc12)NC(=O)[C@H](CC(N)=O)NC(=O)[C@@H](NC(=O)[C@H](Cc1ccccc1)NC(=O)[C@H](CCC(=O)O)NC(=O)C(C)(C)NC(=O)[C@H](C)NC(=O)[C@H](C)NC(=O)[C@H](CCC(N)=O)NC(=O)[C@H](CCCCN)NC(=O)[C@H](CC(=O)O)NC(=O)[C@H](CC(C)C)NC(=O)[C@H](Cc1ccc(O)cc1)NC(=O)[C@@H](NC(=O)[C@H](CO)NC(=O)[C@H](Cc1ccc(O)cc1)NC(=O)[C@H](CC(=O)O)NC(=O)[C@H](CO)NC(=O)[C@@H](NC(=O)[C@H](Cc1ccccc1)NC(=O)[C@@H](NC(=O)CNC(=O)[C@H](CCC(=O)O)NC(=O)CCCNC(=O)CCN1CCCCC1=O)[C@@H](C)O)[C@@H](C)O)[C@@H](C)CC)C(C)C)C(N)=O)C(=O)O` [Compound 15], the Emax on GIP-R (Table 3) amounted to 20%; on GIP-R (Table 3A) it was 20%; on GLP-1R [2] (Table 3), 93%; on GLP-1R [2] (Table 3A) it was 93%. Also, the EC50 at GIP-R (setting [3]) was 1 to 10 nM; at GIP-R (setting [4]), 10 to 100 nM; at GLP-1R [1] (setting [5]), above 1000 nM; at GLP-1R [2] (setting [6]), 0.1 to 1 nM; on GLP-1R [2] (setting [7]), 0.1 to 1 nM.
With `CCCCCCCCCCCCCCCC(=O)N[C@@H](CCC(=O)NCCCC[C@H](NC(=O)[C@H](CO)NC(=O)[C@@H]1CCCN1C(=O)[C@@H]1CCCN1C(=O)[C@@H]1CCCN1C(=O)[C@H](C)NC(=O)CNC(=O)[C@H](CO)NC(=O)[C@H](CO)NC(=O)[C@@H]1CCCN1C(=O)CNC(=O)CNC(=O)[C@H](C)NC(=O)[C@H](CC(C)C)NC(=O)[C@H](CC(C)C)NC(=O)[C@H](Cc1c[nH]c2ccccc12)NC(=O)[C@H](CC(N)=O)NC(=O)[C@@H](NC(=O)[C@H](Cc1ccccc1)NC(=O)[C@H](CCC(=O)O)NC(=O)C(C)(C)NC(=O)[C@H](C)NC(=O)[C@H](C)NC(=O)[C@H](CCC(N)=O)NC(=O)[C@H](CCCCN)NC(=O)[C@H](CC(=O)O)NC(=O)[C@H](CC(C)C)NC(=O)[C@H](Cc1ccc(O)cc1)NC(=O)[C@@H](NC(=O)[C@H](CO)NC(=O)[C@H](Cc1ccc(O)cc1)NC(=O)[C@H](CC(=O)O)NC(=O)[C@H](CO)NC(=O)[C@@H](NC(=O)[C@H](Cc1ccccc1)NC(=O)[C@@H](NC(=O)CNC(=O)[C@H](CCC(=O)O)NC(=O)CSCC(=O)NCCN1CCCS1(=O)=O)[C@@H](C)O)[C@@H](C)O)[C@@H](C)CC)C(C)C)C(N)=O)C(=O)O` [Compound 42], the Emax on GIP-R (Table 3) was in the range of 28 to 46%; on GIP-R (Table 3A), 28 to 46%; on GLP-1R [2] (Table 3), 102 to 109%; on GLP-1R [2] (Table 3A), 102 to 109%. Also, the EC50 on GIP-R (setting [3]) is 0.1 to 10 nM; on GIP-R (setting [4]), 0.1 to 100 nM; at GLP-1R [1] (setting [5]), above 1000 nM; at GLP-1R [2] (setting [6]) it was below 1 nM; at GLP-1R [2] (setting [7]), below 1 nM.
As to `CCCCCCCCCCCCCCCC(=O)N[C@@H](CCC(=O)NCCCC[C@H](NC(=O)[C@H](CO)NC(=O)[C@@H]1CCCN1C(=O)[C@@H]1CCCN1C(=O)[C@@H]1CCCN1C(=O)[C@H](C)NC(=O)CNC(=O)[C@H](CO)NC(=O)[C@H](CO)NC(=O)[C@@H]1CCCN1C(=O)CNC(=O)CNC(=O)[C@H](C)NC(=O)[C@H](CC(C)C)NC(=O)[C@H](CC(C)C)NC(=O)[C@H](Cc1c[nH]c2ccccc12)NC(=O)[C@H](CC(N)=O)NC(=O)[C@@H](NC(=O)[C@H](Cc1ccccc1)NC(=O)[C@H](CCC(=O)O)NC(=O)C(C)(C)NC(=O)[C@H](C)NC(=O)[C@H](C)NC(=O)[C@H](CCC(N)=O)NC(=O)[C@H](CCCCN)NC(=O)[C@H](CC(=O)O)NC(=O)[C@H](CC(C)C)NC(=O)[C@H](Cc1ccc(O)cc1)NC(=O)[C@@H](NC(=O)[C@H](CO)NC(=O)[C@H](Cc1ccc(O)cc1)NC(=O)[C@H](CC(=O)O)NC(=O)[C@H](CO)NC(=O)[C@@H](NC(=O)[C@H](Cc1ccccc1)NC(=O)[C@@H](NC(=O)CNC(=O)[C@H](CCC(=O)O)NC(=O)CSCC(=O)NCCN1CCC[C@H](O)C1=O)[C@@H](C)O)[C@@H](C)O)[C@@H](C)CC)C(C)C)C(N)=O)C(=O)O` [Compound 21], the EC50 on GIP-R (EC50 GIP-R/nM, Table 3) was 1 to 10 nM; on GIP-R (EC50 GIP-R/nM, Table 3A) it was 10 to 100 nM; at GLP-1R [1] it was above 1000 nM; at GLP-1R [2] (EC50 GLP-1R/nM, Table 3) it was below 0.1 nM; at GLP-1R [2] (EC50 GLP-1R/nM, Table 3A), below 0.1 nM. For the same compound, the Emax on GIP-R (Table 3) stood at 20%; at GIP-R (Table 3A) it was 20%; at GLP-1R [2] (Table 3), 95%; at GLP-1R [2] (Table 3A), 95%.
As to `CCCCCCCCCCCCCCCC(=O)N[C@@H](CCC(=O)NCCCC[C@H](NC(=O)[C@H](CO)NC(=O)[C@@H]1CCCN1C(=O)[C@@H]1CCCN1C(=O)[C@@H]1CCCN1C(=O)[C@H](C)NC(=O)CNC(=O)[C@H](CO)NC(=O)[C@H](CO)NC(=O)[C@@H]1CCCN1C(=O)CNC(=O)CNC(=O)[C@H](C)NC(=O)[C@H](CC(C)C)NC(=O)[C@H](CC(C)C)NC(=O)[C@H](Cc1c[nH]c2ccccc12)NC(=O)[C@H](CC(N)=O)NC(=O)[C@@H](NC(=O)[C@H](Cc1ccccc1)NC(=O)[C@H](CCC(=O)O)NC(=O)C(C)(C)NC(=O)[C@H](C)NC(=O)[C@H](C)NC(=O)[C@H](CCC(N)=O)NC(=O)[C@H](CCCCN)NC(=O)[C@H](CC(=O)O)NC(=O)[C@H](CC(C)C)NC(=O)[C@H](Cc1ccc(O)cc1)NC(=O)[C@@H](NC(=O)[C@H](CO)NC(=O)[C@H](Cc1ccc(O)cc1)NC(=O)[C@H](CC(=O)O)NC(=O)[C@H](CO)NC(=O)[C@@H](NC(=O)[C@H](Cc1ccccc1)NC(=O)[C@@H](NC(=O)CNC(=O)[C@H](CCC(=O)O)NC(=O)C(C)(C)CC(=O)NCCN1CCOCC1=O)[C@@H](C)O)[C@@H](C)O)[C@@H](C)CC)C(C)C)C(N)=O)C(=O)O` [Compound 244], the figures for the Emax on GIP-R (Table 3A) and on GLP-1R [2] (Table 3A) were 50% and 100%, respectively. The EC50 on GIP-R (setting [4]) is 1 to 10 nM; at GLP-1R [1] (setting [5]), 10 to 1000 nM; at GLP-1R [2] (setting [7]), below 0.1 nM.
